Values joined by “and” are separate entries in the source; they are usually repeats but may differ in a detail not shown here. Equal entries are not always repeated.
Legend:
GLUT2 = biological target: T1, GLUT2 (Homo sapiens, UniProt P11168); assay: Glucose transport inhibitor cell screening assay, 25 mM D-glucose for 30 minutes; settings: for inhibition at 300 µM: Caco-2, read-out: % Glucose transport inhibiton 25 mM; for identified as inhibitors of GLUT2: Caco-2 cell assay
T1 sequence (P11168 1-524): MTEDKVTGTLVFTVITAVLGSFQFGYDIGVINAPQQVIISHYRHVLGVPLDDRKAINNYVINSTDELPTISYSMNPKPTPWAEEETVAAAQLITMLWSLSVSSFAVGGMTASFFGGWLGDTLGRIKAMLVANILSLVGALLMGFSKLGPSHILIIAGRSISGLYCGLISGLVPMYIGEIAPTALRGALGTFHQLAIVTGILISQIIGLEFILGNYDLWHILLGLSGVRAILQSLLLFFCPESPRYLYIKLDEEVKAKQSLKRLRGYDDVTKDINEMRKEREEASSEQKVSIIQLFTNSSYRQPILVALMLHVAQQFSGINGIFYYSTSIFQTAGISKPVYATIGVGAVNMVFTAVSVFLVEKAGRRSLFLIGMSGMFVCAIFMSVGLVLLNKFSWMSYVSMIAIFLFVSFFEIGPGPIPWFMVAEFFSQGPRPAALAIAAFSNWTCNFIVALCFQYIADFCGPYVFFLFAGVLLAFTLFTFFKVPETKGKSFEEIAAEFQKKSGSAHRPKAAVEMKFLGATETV
Method: (§1) Human epithelial colorectal adenocarcinoma (Caco-2) cells were obtained from the American Type Culture Collection (ATCC) and cultured in Growth Medium consisting of Dulbecco's modified Eagle's medium (containing Glutamax-1, 4.5 g/L D-glucose and 25 mM 4-(2-hydroxyethyl)-1-piperazine ethanesulphonic acid (Hepes) (Invitrogen)), 10% foetal bovine serum (Sigma), 1% non-essential amino acids (Invitrogen) and 1 mM sodium pyruvate (Sigma)). The cells were routinely passaged at approximately 80% confluence using TrypLE™ Express Stable Trypsin-Like Enzyme (Invitrogen) to detach the cells, and seeded at approximately 114 cells per mm^2 in fresh tissue culture flasks. Only cells between the passage numbers 45 and 49 were used for experiments.
(§2) Corning® HTS Transwell® 96 well permeable insert supports (Sigma) were collagen coated with 40 μl of 50 μg/ml rat tail collagen type I (BD Biosciences) in 0.02 M acetic acid for one hour at room temperature under sterile conditions. The inserts were washed twice in phosphate buffered saline (PBS (Invitrogen)) and the Caco-2 cells seeded into the inserts at 1.0×10^6 cell/ml (75 μl per insert) in Growth Medium and 30 ml of Growth Medium added to the feeder plate below. The cells were left to attach to the collagen matrix and form monolayers over 48 hours at 37° C., 5% CO2. Both inserts and feeder plate were washed in PBS and the cells incubated with BD Entero-STIM™ Enterocyte Differentiation Medium containing MITO+™ Serum Extender solution (both BD Biosciences), 75 μl per insert and 30 ml in the feeder plate, for a further 48 hours at 37° C., 5% CO2.
(§3) Differentiated cell monolayers were washed gently in Dulbecco's Phosphate Buffered Saline containing CaCl2 and MgCl2 (PBS(+) (Invitrogen)) and the inserts transferred to a new Corning® HTS Transwell®-96 well receiver plate (Sigma). The cells were incubated with fresh PBS(+) (75 μl per insert and 225 μl per well) for 60 minutes at 37° C., 5% CO2. The PBS(+) was gently aspirated and replaced with 75 μl per insert of either 5 mM D-glucose (Sigma)±test compound or 25 mM D-glucose±test compound in triplicate and 225 μl per well of PBS(+) quickly added to each well. The 5 mM glucose wells and the 25 mM glucose wells were incubated at 37° C., 5% CO2 for 15 minutes and 30 minutes, respectively. […] The cell inserts were transferred to a new receiver plate, the supernatant gently aspirated from the cells and replaced with 100 μl of 100 μM of Lucifer Yellow (Sigma) solution to confirm the integrity of the monolayers. 225 μl of PBS(+) was added to each well and incubated at 37° C., 5% CO2 for 1 hour. The cell inserts were then discarded and the permeability of the membranes to Lucifer Yellow checked by measuring the fluorescence of the samples at 485 nm (excitation) and 530 nm (emission) on a Spectramax Gemini EM fluorescence microplate reader.
(§4) The amount of glucose transported across the cell monolayers was measured using a glucose assay based on Invitrogen's Amplex Red Glucose/Glucose oxidase Assay Kit. Briefly, 50 μl of each test sample was transferred to a black sided/clear bottom 96-well plate (Greiner Bio-One) to which 100 μl of reaction buffer (0.5 μl 10 mM Ampliflu Red, 1 μl 10 U/ml Horse Radish peroxidase, 1 μl 100 U/ml glucose oxidase and 97.5 μl PBS (all Sigma)) was added. After 10 minutes incubation at room temperature, the fluorescence of the samples was measured at 530 nm (excitation) and 590 nm (emission) on a Spectramax Gemini EM fluorescence microplate reader and the glucose concentration extrapolated from a standard curve.
(§5) At higher D-glucose concentrations, the SGLT1 transporter becomes saturated and consequently the majority of glucose transport across the monolayer is driven by the low affinity, high capacity GLUT2 transporter that is targeted to the apical membrane only following an initial SGLT1-dependent transport of glucose.

SGLT1 = biological target: T2, SGLT1 (Homo sapiens, UniProt P13866); assay: Glucose transport inhibitor cell screening assay, 5 mM D-glucose for 15 minutes; settings: for inhibition at 300 µM: Caco-2, read-out: % Glucose transport inhibiton 5 mM
T2 sequence (P13866 1-664): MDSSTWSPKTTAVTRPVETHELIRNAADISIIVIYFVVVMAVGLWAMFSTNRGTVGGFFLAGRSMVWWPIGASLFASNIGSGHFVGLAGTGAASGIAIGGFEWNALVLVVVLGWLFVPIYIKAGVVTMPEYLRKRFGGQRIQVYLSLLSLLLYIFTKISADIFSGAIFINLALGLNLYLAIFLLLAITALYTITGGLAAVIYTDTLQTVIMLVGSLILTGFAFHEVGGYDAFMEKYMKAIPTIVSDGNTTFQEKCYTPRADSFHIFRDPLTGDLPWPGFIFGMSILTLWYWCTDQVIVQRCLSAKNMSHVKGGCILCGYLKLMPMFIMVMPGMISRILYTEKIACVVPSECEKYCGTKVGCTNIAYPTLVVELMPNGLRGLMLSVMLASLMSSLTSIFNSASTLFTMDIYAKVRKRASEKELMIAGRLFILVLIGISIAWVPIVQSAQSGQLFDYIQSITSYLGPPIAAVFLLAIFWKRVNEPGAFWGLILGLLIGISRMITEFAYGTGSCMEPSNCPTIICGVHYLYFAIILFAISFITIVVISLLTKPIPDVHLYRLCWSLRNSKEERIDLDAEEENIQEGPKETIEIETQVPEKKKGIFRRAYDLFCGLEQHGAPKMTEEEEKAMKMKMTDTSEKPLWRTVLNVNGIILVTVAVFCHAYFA
Method: as §1, §2, §3, §4, §5

SGLT1 and GLUT2 = assay: Assigned class of transporter inhibited, from Caco-2 screening at 5 mM and 25 mM D-glucose; type: cell-based, human; settings: from % inhibition at 5 mM and 25 mM D-glucose; compound 300 μM
[1] = test system: glucose transport across differentiated Caco-2 cell monolayers; assay: Glucose transport cell model: 5 mM D-glucose 15 minutes, then 25 mM for 45 minutes, cumulative glucose transport; type: cell-based, human; parameters: unit not given here; settings: duplicate
Method: Caco-2 cells were cultured and routinely passaged as described in Example 1.
After the last incubation, all of the retained PBS(+) from each step (i.e. at 15, 30, 45 and 60 minutes) was assayed for glucose levels as described in Example 1, and the total cumulative glucose transport calculated. The localised changes in luminal glucose concentrations described and illustrated in example 1 are mimicked in-vitro through an initial short incubation of differentiated Caco-2 cells with a low level of D-glucose (5 mM for 15 minutes) immediately followed by a sustained incubation with a high level of D-glucose (final concentration of 25 mM for 45 minutes).
In the above table, every test pairing of a homisoflavonoid (HIF) and a flavonoid monoglucoside (FM) has 5 values reported: • 1. No Compound (NC)+NC • 2.
Synergy is achieved when the inhibition caused by the combination of HIF and FM is greater than the sum of the inhibition due to HIF alone added to the inhibition due to FM alone.

[2] = homoisoflavonoid 5 uM alone, added at 25 mM glucose step (NC at 5 mM)

Compound	inhibition at 300 µM (GLUT2)	identified as inhibitors of GLUT2 (GLUT2)	inhibition at 300 µM (SGLT1)	Class (assigned class of transporter inhibited) (SGLT1 and GLUT2)	Cumulative (AVE) glucose transport ([1]; homoisoflavonoid 10 uM alone, added at 25 mM glucose step (NC at 5 mM))	Cumulative (AVE) glucose transport ([1]; homoisoflavonoid 2.5 uM alone, added at 25 mM glucose step (NC at 5 mM))	Cumulative (AVE) glucose transport [1, 2]	identified as inhibitors of SGLT1 (SGLT1; Caco-2 cell assay)	Cumulative (AVE) glucose transport ([1]; flavonoid monoglucoside 300 uM alone, added at 5 mM glucose step only (NC at 25 mM), listed as T)	Cumulative (AVE) glucose transport ([1]; flavonoid monoglucoside 300 uM alone, added at 25 mM glucose step only (NC at 5 mM), listed as T)
COc1c(O)c(C)c(O)c2c1OCC(Cc1ccc(O)cc1)C2=O (centres unmarked) [EA2, 5,7-dihydroxy-3-(4′-hydroxybenzyl)-6-methyl-8-methoxychroman-4-one]	63 ± 2.94%	inhibitors of GLUT2	89.9 ± 0.06%	GLUT2 (GLUT2 inhibitors having ≥20% inhibition at both 5 mM and 25 mM D-glucose levels)	283.98	–	–	–	–	–
Cc1c(O)c(C)c2c(c1O)C(=O)C(Cc1ccc(O)cc1)CO2 (centres unmarked) [EA3, 5,7-dihydroxy-3-(4′-hydroxybenzyl)-6,8-dimethylchroman-4-one]	67.4 ± 5.87%	inhibitors of GLUT2	91.15 ± 0.46%	GLUT2 (GLUT2 inhibitors having ≥20% inhibition at both 5 mM and 25 mM D-glucose levels)	–	291.33	–	–	–	–
Cc1c(O)c(C)c2c(c1O)C(=O)[C@H](Cc1ccc3c(c1)OCO3)CO2 [MOA, methylophiopogonanone A]	27.7 ± 3.7%	inhibitors of GLUT2	39.3 ± 2.17%	GLUT2 (GLUT2 inhibitors having ≥20% inhibition at both 5 mM and 25 mM D-glucose levels)	–	–	231.69	–	–	–
COc1ccc(C[C@@H]2COc3c(C)c(O)c(C)c(O)c3C2=O)cc1 [MOB, methylophiopogonanone B]	30.6 ± 3.2%	inhibitors of GLUT2	46.2 ± 2.04%	GLUT2 (GLUT2 inhibitors having ≥20% inhibition at both 5 mM and 25 mM D-glucose levels)	–	–	200.59	–	–	–
COc1c(O[C@@H]2O[C@H](CO)[C@@H](O)[C@H](O)[C@H]2O)cc2occ(-c3ccc(O)cc3)c(=O)c2c1O [Tectoridin]	4.92 ± 2.08%	–	29.4 ± 0.62%	SGLT1	–	–	–	inhibitors of SGLT1	346.92 and 321.4 and 298.40	395.85 and 304.5 and 298.98

From patent publication US10806744B2, “Edible composition” (Conopco, Inc., priority 2015, dated 2020)
